Experimental data reported in publication PMC9562916, “Investigation of the Phenolic Component Bioavailability Using the In Vitro Digestion/Caco-2 Cell Model, as well as the Antioxidant Activity in Chinese Red Wine” (Foods, 2022).
Like-named read-outs stand apart in the source and are kept apart here. Marks after values point to notes of the source that are not given here.

Legend:
[1] = PC content of red wine before and after in vitro simulated gastrointestinal digestion (HPLC); type: in vitro ADME; conditions: for Increase in content after digestion: after digestion vs undigested
Description: The digestion procedure was carried out by adapting the method of Brodkorb et al. and Gómez et al.. […] One milliliter (50 units/mL) of porcine amylase was prepared in a 15 mM Na₃PO₄ buffer solution (pH adjusted to 6.8) containing 1.5 mM CaCl2, and it was added to the red wine solution. After 5 min, 4.5 mL of 0.12 M HCl was added to the mixture to adjust the pH to 2.4. One milliliter of porcine pepsin (0.02 mg/L) was dissolved in a 20 mM HCl solution. The mixture was then maintained at 37 °C for 120 min. The digestion mixture was then centrifuged at 8000× g for 15 min to obtain samples from the gastric digestion phase. […] The mixture was incubated at pH 6.5 at 37 °C for 3 h before being centrifuged. The extracts of the intestinal phase were the supernatants. The same operation was done three times, and each sample was stored in a refrigerator (−20 °C) immediately for further analysis.
The Pati method was adopted, with slight modifications, to measure the content of the PCs. The Agilent 1100 series HPLC instrument was used; it was equipped with a degasser, quaternary pump solvent delivery, a DAD system, and a single quadrupole mass detector coupled with an electrospray ionization LC–MS interface. Briefly, th samples were injected into a Zorbax SB C18 reversed-phase column (5 µm,150 × 2.1 mm, Agilent Technologies, Santa Clara, CA, USA) using an autosampler after filtering through 0.45 µm cellulose acetate syringe filters. The column temperature was kept at 30 °C, the injection volume was 10 µL, and the flow rate was 0.3 mL/min. The eluents were water and formic acid in a 99:1 (v/v) (A) ratio and 100% acetonitrile (B). […] The MS configuration was as follows: ESI, negative ion mode, nebulizer pressure of 30 psi, a dry gas flow rate of 10 mL/min, dry gas temperature of 350 °C, and a scan rate of 100~1200 m/z. PCs were determined according to their retention times, UV/VIS spectra, and high-resolution MS spectra, in addition to a comparison with the standards. […] Putative annotations were made using spectral features and literature information on the chromatographic properties and mass spectra records from the metabolome database. A standard curve was drawn using methanol solutions with different concentrations as the standards. The limits of detection and quantitation were calculated according to the signal-to-noise ratio (limit of detection: signal-to-noise ratio ≥ 3; limit of quantitation: signal-to-noise ratio ≥ 10). […] PCs All of the samples were determined in triplicate.

Caco-2 cell monolayer = test: Caco-2 transepithelial transport assay of digested red wine; type: in vitro ADME, human
Description: Caco-2 cells were inoculated following the method of Hubatsch et al. […] Briefly, a 5% v/v of CO2 incubator at 37 °C was used to house the cells. […] Caco-2 cells were sub-cultured when they reached 80-90% of the adherent growth by treating them with a 0.05% v/v of trypsin-EDTA solution. The culture between passages 35 and 40 was used for the following experiment. Transport experiments were performed according to the method of Wu et al. with slight modifications. First, 1.0 × 10^5 Caco-2 cells were inoculated onto 12 mm transparent cell culture plates (Transwell). Media were carefully injected into the apical (0.5 mL) and basolateral (1.5 mL) sides of the Transwell plates. The cell culture medium had to be replaced every other day until the cells formed a monolayer. The integrity and transport ability of the Caco-2 cell monolayer were evaluated by measuring the trans-epithelial electrical resistance (TEER) with a MilliCell voltammeter (Millicell ERS-2, Merck Millipore, Billerica, MA, USA). […] When the cell activity exceeded 0.9, a transport experiment was conducted. The apical side was injected with a digested red wine sample (0.5 mL) and was thoroughly mixed with […] Balanced Salt Solution (HBSS) buffer solution. […] The cells were then cultured in a 37 °C, 5% CO2 incubator. Then, 0.25 mL samples were separately taken from the basolateral side of the monolayer. An equal volume of HBSS buffer was then added every half hour from the beginning of the culture until the end of the culture at 6 h. The collected samples were subsequently filtered and placed in the sample bottle for further HPLC analysis. This experiment was repeated several times to collect enough samples for the next antioxidant test. […] The Agilent 1100 series HPLC instrument was used; it was equipped with a degasser, quaternary pump solvent delivery, a DAD system, and a single quadrupole mass detector coupled with an electrospray ionization LC-MS interface. […] The column temperature was kept at 30 °C, the injection volume was 10 μL, and the flow rate was 0.3 mL/min. The eluents were water and formic acid in a 99:1 (v/v) (A) ratio and 100% acetonitrile (B). The gradient elution procedure was as follows: (1) 3% B solvent at 0 min, (2) 3 to 16% B solvent at 10 min, (3) 16 to 20% B solvent at 30 min, and (4) 20% B solvent maintained until the procedure was completed. The MS configuration was as follows: ESI, negative ion mode, nebulizer pressure of 30 psi, a dry gas flow rate of 10 mL/min, dry gas temperature of 350 °C, and a scan rate of 100~1200 m/z. PCs were determined according to their retention times, UV/VIS spectra, and high-resolution MS spectra, in addition to a comparison with the standards. […] If a standard was unavailable, a structurally related compound was used. Putative annotations were made using spectral features and literature information on the chromatographic properties and mass spectra records from the metabolome database. A standard curve was drawn using methanol solutions with different concentrations as the standards. […] PCs All of the samples were determined in triplicate.

[2] = Cabernet red wine, after simulated gastrointestinal digestion
[3] = Helanshan red wine, after simulated gastrointestinal digestion
[4] = Tianzhu red wine, after simulated gastrointestinal digestion
[5] = Cabernet red wine, digested sample, basolateral side of Caco-2 monolayer
[6] = Helanshan red wine, digested sample, basolateral side of Caco-2 monolayer
[7] = Tianzhu red wine, digested sample, basolateral side of Caco-2 monolayer
[8] = apical to basolateral, digested Cabernet red wine
[9] = apical to basolateral, digested Helanshan red wine
[10] = apical to basolateral, digested Tianzhu red wine

SMILES	PC Contents, Cabernet, After Digestion [1]	PC Contents, Helanshan, After Digestion [1]	PC Contents, Tianzhu, After Digestion [1]	Apparent Permeability Coefficients, Cabernet (Caco-2 cell monolayer; Caco-2)	Apparent Permeability Coefficients, Helanshan (Caco-2 cell monolayer; Caco-2)	Apparent Permeability Coefficients, Tianzhu (Caco-2 cell monolayer; Caco-2)	PC Contents, Cabernet, Transmembrane (Caco-2 cell monolayer; Caco-2)	PC Contents, Helanshan, Transmembrane (Caco-2 cell monolayer; Caco-2)	PC Contents, Tianzhu, Transmembrane (Caco-2 cell monolayer; Caco-2)	PC Contents, Cabernet, After Digestion [1, 2]	PC Contents, Helanshan, After Digestion [1, 3]	PC Contents, Tianzhu, After Digestion [1, 4]	PC Contents, Cabernet, Transmembrane (Caco-2 cell monolayer; [5])	PC Contents, Helanshan, Transmembrane (Caco-2 cell monolayer; [6])	PC Contents, Tianzhu, Transmembrane (Caco-2 cell monolayer; [7])	Apparent Permeability Coefficients, Cabernet (Caco-2 cell monolayer; [8])	Apparent Permeability Coefficients, Helanshan (Caco-2 cell monolayer; [9])	Apparent Permeability Coefficients, Tianzhu (Caco-2 cell monolayer; [10])	Increase in content after digestion ([1]; Helanshan red wine) [%]	Increase in content after digestion ([1]; Tianzhu red wine) [%]
O.Oc1cc(O)c2c(c1)O[C@H](c1ccc(O)c(O)c1)[C@@H](O)C2 [Catechin]	25.4 ± 0.86 ^b mg/L	15.42 ± 0.83 ^b mg/L	16.7 ± 0.75 ^b mg/L	7.77 ± 1.14 ^a ×10^−6 cm/s	7.69 ± 1.23 ^a ×10^−6 cm/s	7.83 ± 1.17 ^a ×10^−6 cm/s														
O=C(/C=C/c1ccc(O)cc1)O[C@@H](C(=O)O)[C@@H](O)C(=O)O [Coutaric acid]	1.96 ± 0.08 ^b mg/L	2.97 ± 0.15 ^b mg/L		12.13 ± 1.19 ^a ×10^−6 cm/s	12.91 ± 1.32 ^a ×10^−6 cm/s	12.46 ± 1.42 ^a ×10^−6 cm/s	0.38 ± 0.02 ^a mg/L	0.61 ± 0.03 ^a mg/L	0.64 ± 0.03 ^a mg/L											
CC(=O)OCC1OC(Oc2cc3c(O)cc(O)cc3[o+]c2-c2cc(O)c(O)c(O)c2)C(O)C(O)C1O (stereo not drawn) [Delphinidin-3-acglc]										0.29 ± 0.014 ^b mg/L	0.14 ± 0.007 ^b mg/L	0.22 ± 0.008 ^b mg/L	0.04 ± 0.002 ^a mg/L	0.02 ± 0.001 ^a mg/L	0.04 ± 0.002 ^a mg/L	8.57 ± 1.26 ^a ×10^−6 cm/s	8.64 ± 1.38 ^a ×10^−6 cm/s	8.78 ± 1.44 ^a ×10^−6 cm/s		
OC[C@H]1O[C@@H](Oc2cc3c(O)cc(O)cc3[o+]c2-c2cc(O)c(O)c(O)c2)[C@H](O)[C@@H](O)[C@@H]1O [Delphinidin-3-glc, delphinidin-3-glucoside]										2.96 ± 0.09 ^b mg/L	2.63 ± 0.10 ^c mg/L	2.87 ± 0.11 ^c mg/L	0.59 ± 0.02 ^a mg/L	0.53 ± 0.02 ^a mg/L	0.57 ± 0.02 ^a mg/L	12.38 ± 2.37 ^a ×10^−6 cm/s	12.59 ± 2.64 ^a ×10^−6 cm/s	12.45 ± 2.11 ^a ×10^−6 cm/s	28.3	20.6
COc1cc(/C=C/C(=O)OC(C(=O)O)C(O)C(=O)O)ccc1O (stereo not drawn) [Fertaric acid]	3.11 ± 0.12 ^b mg/L	1.81 ± 0.10 ^c mg/L	4.11 ± 0.18 ^c mg/L	28.2 ± 4.11 ^a ×10^−6 cm/s	27.9 ± 3.64 ^a ×10^−6 cm/s	27.6 ± 3.89 ^a ×10^−6 cm/s	1.40 ± 0.07 ^a mg/L	0.81 ± 0.04 ^a mg/L	0.82 ± 0.03 ^a mg/L											
COc1cc(-c2oc3cc(O)cc(O)c3c(=O)c2O[C@@H]2O[C@H](CO)[C@@H](O)[C@H](O)[C@H]2O)ccc1O [Isorhamnetin-3-glc]										10.82 ± 0.32 ^b mg/L	9.87 ± 0.47 ^b mg/L	9.88 ± 0.35 ^b mg/L	0.74 ± 0.03 ^a mg/L	0.69 ± 0.03 ^a mg/L	1.97 ± 0.07 ^a mg/L	4.29 ± 0.33 ^a ×10^−6 cm/s	4.39 ± 0.31 ^a ×10^−6 cm/s	4.35 ± 0.34 ^a ×10^−6 cm/s		
COc1cc(-c2oc3cc(O)cc(O)c3c(=O)c2O[C@@H]2O[C@H](CO)[C@@H](O)[C@H](O)[C@H]2O)cc(O)c1O [Laricitrin-3-glc]	29.78 ± 1.28 ^b mg/L	18.76 ± 0.81 ^b mg/L	28.63 ± 0.86 ^b mg/L	1.76 ± 0.17 ^a ×10^−6 cm/s	1.83 ± 0.16 ^a ×10^−6 cm/s	1.79 ± 0.13 ^a ×10^−6 cm/s	0.84 ± 0.04 ^a mg/L	0.55 ± 0.03 ^a mg/L	5.70 ± 0.29 ^a mg/L											
COc1cc(-c2[o+]c3cc(O)cc(O)c3cc2O[C@@H]2O[C@H](COC(C)=O)[C@@H](O)[C@H](O)[C@H]2O)cc(OC)c1O [Malvidin-3-acglc]										39.8 ± 1.51 ^b mg/L	30.5 ± 0.92 ^b mg/L	39.3 ± 1.30 ^b mg/L	8.02 ± 0.38 ^a mg/L	6.06 ± 0.25 ^a mg/L	7.83 ± 0.23 ^a mg/L	12.59 ± 2.16 ^a ×10^−6 cm/s	12.42 ± 2.23 ^a ×10^−6 cm/s	12.37 ± 2.45 ^a ×10^−6 cm/s		
COc1cc(-c2[o+]c3cc(O)cc(O)c3cc2O[C@@H]2O[C@H](CO)[C@@H](O)[C@H](O)[C@H]2O)cc(OC)c1O [Malvidin-3-glc, malvidin-3-glucoside]										153.43 ± 5.83 ^b mg/L	88.2 ± 3.97 ^b mg/L	103.8 ± 5.71 ^b mg/L	62.38 ± 3.24 ^a mg/L	35.55 ± 1.46 ^a mg/L	20.68 ± 1.05 ^a mg/L		25.19 ± 3.99 ^a ×10^−6 cm/s	25.37 ± 4.11 ^a ×10^−6 cm/s		
